In patent publication US11059792B2, “Imidazolyl tricyclic enones as antioxidant inflammation modulators” (REATA PHARMACEUTICALS, INC., priority 2015, dated 2021):

System: RAW 264.7 cells
Assay: Nitric oxide suppression assay (IFNγ-induced NO production, Griess detection)
Type: cell-based
Conditions: RAW264.7, RAW 264.7 mouse macrophages, 2 h compound pre-treatment, 20 ng/mL interferon gamma, ~18 h
Method: RAW 264.7, a mouse macrophage cell line, was obtained from American Type Culture Collection (Manassas Va.) and maintained in the log phase of growth in Dulbecco's Modified Eagle's Medium (DMEM), 10% heat inactivated fetal calf serum and 100 units/mL antibiotic-antimycotic (AA). Cells were cultured and maintained in a humidified incubator at 37° C. under 5% CO2 and 95% air. Cells were sub-cultured every 3 days by scraping and were not used beyond passage 20. All cell culture supplies were obtained from Life Technologies (Grand Island, N.Y.).
RAW 264.7 cells were plated 1 day in advance of experiment at a concentration of 80,000 cells/well onto CellBIND® 96 well plates (Corning, N.Y.) in a total volume of 100 μL. The next day, pre-treat cells with compounds (from 3 μM to 0.3 nM serially diluted in a 10 point curve) from a 10× stock by adding 10 μL per well in complete DMEM media containing 10% fetal calf serum. The plates were centrifuged for 3 minutes at 400×g at room temperature followed by 2 hour incubation at 37° C. The cells were then incubated overnight at 37° C. with 10 μL of the insult, interferon gamma (R&D Systems, Minneapolis, Minn.), from a 10× stock for a final concentration of 20 ng/mL. The plates were centrifuged for 3 minutes at 400×g at room temperature followed by ˜18 hour incubation at 37° C. The following day, transfer 50 μL cell culture supernatant from each well into a clear bottom 96 well plate and follow the instructions from Promega's Griess Detection Kit #G2930 (Madison, Wis.) which involves the addition of 50 μL of the provided sulfanilamide solution for a 5-10 minute incubation at room temperature. Next add 50 μL of the provided N-1-napthylethylenediamine dihydrochloride (NED) solution for a 5-10 minute incubation at room temperature and protected from light. If any air bubbles were introduced into the well, the plates need to be centrifuged for 5 minutes at 400×g at room temperature to avoid interference with absorbance readings. The plates were read for absorbance within 30 minutes with a filter between 520 nm and 550 nm.
For the ability of compounds to suppress the increase in nitric oxide release, the percent maximal intensity of nitric oxide detected in each well was normalized to that induced by the peak value for 20 ng/mL of interferon gamma alone and plotted against the compound concentration to calculate IC50 values and to control for plate-to-plate variability. Concentration-response data were analyzed using GraphPad Prism (San Diego, Calif.); the IC50 values were derived from a single curve fit to the mean data of n=2-3, in duplicates.
All compounds were dissolved in dimethyl sulfoxide at 10 mM stock solutions and tested at a concentration that the dimethyl sulfoxide levels never exceeded 1%.

IC50 | SMILES
0.233 µM | Cc1nc2c(n1-c1cnn(C)c1)CC[C@H]1[C@H](C)C(=O)C(C#N)=C[C@]21C [Compound T13]
0.138 µM | Cc1nc2c(n1-c1ccccc1)CC[C@H]1[C@H](C)C(=O)C(C(N)=O)=C[C@]21C [Compound T28]
0.407 µM | COCCCn1c(C)nc2c1CC[C@H]1[C@H](C)C(=O)C(C#N)=C[C@]21C [Compound T21]
0.693 µM | CNC(=O)CCc1cccc(-n2c(C)nc3c2CC[C@H]2[C@H](C)C(=O)C(C#N)=C[C@]32C)c1 [Compound T18]
0.0227 µM | C[C@@H]1C(=O)C(C#N)=C[C@]2(C)c3nc(-c4cnn(C)c4)n(-c4ccccc4)c3CC[C@@H]12 [Compound T9]
0.0932 µM | C[C@@H]1C(=O)C(C#N)=C[C@]2(C)c3nc(CCOCc4ccccc4)n(-c4ccccc4)c3CC[C@@H]12 [Compound T11]
0.0531 µM | C[C@@H]1C(=O)C(C#N)=C[C@]2(C)c3nc(C(N)=O)n(-c4ccccc4)c3CC[C@@H]12 [Compound T27]
0.0478 µM | Cc1nc2c(n1-c1cccc(-c3cncnc3)c1)CC[C@H]1[C@H](C)C(=O)C(C#N)=C[C@]21C [Compound T22]
0.662 µM | CC(=O)OCCCc1cccc(-n2c(-c3ccccc3)nc3c2CC[C@H]2[C@H](C)C(=O)C(C#N)=C[C@]32C)c1 [Compound T4]
0.222 µM | COC(=O)CCc1cccc(-n2c(C)nc3c2CC[C@H]2[C@H](C)C(=O)C(C#N)=C[C@]32C)c1 [Compound T14]
0.0154 µM | Cc1ccccc1-c1nc2c(n1-c1nnn(C)n1)CC[C@H]1[C@H](C)C(=O)C(C#N)=C[C@]21C [Compound T25]
0.471 µM | C[C@@H]1C(=O)C(C#N)=C[C@]2(C)c3nc(-c4ccccc4)n(-c4ccccc4)c3CC[C@@H]12 [Compound T2]
0.151 µM | C[C@@H]1C(=O)C(C#N)=C[C@]2(C)c3nc(-c4ccccc4)[nH]c3CC[C@@H]12 [Compound T1]
0.12 µM | C[C@@H]1C(=O)C(C#N)=C[C@]2(C)c3nc(-c4ccccc4)n(-c4cnn(C)c4)c3CC[C@@H]12 [Compound T17]
> 3 µM | Cc1nc2c(n1-c1cccc(CCC(=O)O)c1)CC[C@H]1[C@H](C)C(=O)C(C#N)=C[C@]21C [Compound T15]
0.136 µM | Cc1nc2c(n1-c1ccc(-c3ccccc3)cc1)CC[C@H]1[C@H](C)C(=O)C(C#N)=C[C@]21C [TS]
0.132 µM | C[C@@H]1C(=O)C(C#N)=C[C@]2(C)c3nc(-c4cnn(C)c4)n(-c4nnn(C)n4)c3CC[C@@H]12 [Compound T16]
0.0628 µM | Cc1ccccc1-n1c(C)nc2c1CC[C@H]1[C@H](C)C(=O)C(C#N)=C[C@]21C [Compound T10]
0.0488 µM | C[C@@H]1C(=O)C(C#N)=C[C@]2(C)c3nc(-c4ccncc4)n(-c4ccccc4)c3CC[C@@H]12 [Compound T24]
0.0408 µM | Cc1nc2c(n1-c1ccccc1)CC[C@H]1[C@H](C)C(=O)C(C#N)=C[C@]21C [Compound T3]
0.0288 µM | C[C@@H]1C(=O)C(C#N)=C[C@]2(C)c3nc(-c4ccccc4)n(-c4nnn(C)n4)c3CC[C@@H]12 [Compound T8]
0.0827 µM | Cc1nc2c(n1-c1cccc(CCC(=O)N(C)C)c1)CC[C@H]1[C@H](C)C(=O)C(C#N)=C[C@]21C [Compound T19]
0.0311 µM | C[C@@H]1C(=O)C(C#N)=C[C@]2(C)c3nc(Br)n(-c4ccccc4)c3CC[C@@H]12 [Compound T23]
1 µM | Cc1nc2c(n1-c1cccc(CCC(N)=O)c1)CC[C@H]1[C@H](C)C(=O)C(C#N)=C[C@]21C [Compound T20]
0.0194 µM | Cc1nc2c(n1-c1cccc(CCCO)c1)CC[C@H]1[C@H](C)C(=O)C(C#N)=C[C@]21C [Compound T6]
0.0918 µM | Cc1nc2c(n1-c1cccc(-c3ccccc3)c1)CC[C@H]1[C@H](C)C(=O)C(C#N)=C[C@]21C [Compound T7]
0.0113 µM | C[C@@H]1C(=O)C(C#N)=C[C@]2(C)c3nc(CCO)n(-c4ccccc4)c3CC[C@@H]12 [Compound T12]
0.0277 µM | C[C@@H]1C(=O)C(C#N)=C[C@]2(C)c3nc(C#N)n(-c4ccccc4)c3CC[C@@H]12 [Compound T26]
